Several values for one entry are separate records, joined by “and”; a condition that tells them apart may be missing. Equal values may be shown once. Read-outs that look alike come from different tables or passages of the source.

In assay [1] the test system is M. intracellulare. In kind it is cell-based, Mycobacterium intracellulare.
Assay [2] relates to M. tuberculosis. In words: Time to detection (TTD) of growth in BacT/ALERT MP culture bottles. The format is cell-based, Mycobacterium tuberculosis. The following applies: for # Positive: of # Tested.
In assay [3] the test system is M. avium. The format is cell-based, Mycobacterium avium.
The subject of assay [4] is M. scrofulaceum. In words: Time to detection (TTD) of growth in BacT/ALERT MP culture bottles. The format is cell-based, Mycobacterium scrofulaceum. The settings on record: for # Positives: of # Tested; for effect on the growth (as determined by TTD of growth): Mycobacterium scrofulaceum, compared to a culture medium that contained no antimicrobial agents. The protocol: (§1) For the new NS, an autoclaved or new BacT/ALERT® MP bottle was used (as described hereinabove) and for conventional/old RF, conventional/old MP bottle (bioMérieux, Inc.) was used. […] The conventional MAS (using conventional/old RF) and new MAS formulas (using NS) were added to the second set of MP culture bottles. The experiment was performed with mycobacteria species at 0.5×10^3 CFU/ml and CRF cultures at 0.5×10^5 CFU/ml.
(§2) The mycobacteria inoculum was 0.5×10^3 CFU/ml.

Assay [5] deals with M. kansasii. Described as above. In kind it is cell-based, Mycobacterium kansasii. The settings on record: for # Positives: M. kansasii 12478, of # Tested; for effect on the growth (as determined by TTD of growth): Mycobacterium kansasii, compared to a culture medium that contained no antimicrobial agents. The protocol: as §1, §2
For assay [6], the system named is M. fortuitum. Described as above. In kind it is cell-based. The settings on record: M. fortuitum 6841; for # Positives: of # Tested.
The subject of assay [7] is contaminating respiratory flora (CRF). In kind it is cell-based.
Setting [8] is: M. scrofulaceum 19981, Media + VAN 3.5.
[9] abbreviates: M. tuberculosis 27294, Media + AZL 24.

On to `O=C(O)CCC(=O)C(=O)O` [α-keto glutarate, α-ketoglutarate], for which the “Avg. TTD” value in assay [1] is 9.0 days and 8.8 days. The No. of positives in assay [1], in assay [2] and in assay [3] was 3 in each case. For the same molecule, the “reduction in time to detection (TTD) of growth” value in assay [1], in assay [2] and in assay [3] was “two” in each case.

Take `CN[C@H](CC(C)C)C(=O)N[C@H]1C(=O)N[C@@H](CC(N)=O)C(=O)N[C@H]2C(=O)N[C@H]3C(=O)N[C@H](C(=O)N[C@H](C(=O)O)c4cc(O)cc(O)c4-c4cc3ccc4O)[C@H](O)c3ccc(c(Cl)c3)Oc3cc2cc(c3O[C@@H]2O[C@H](CO)[C@@H](O)[C@H](O)[C@H]2O[C@H]2C[C@](C)(N)[C@H](O)[C@H](C)O2)Oc2ccc(cc2Cl)[C@H]1O` [VAN, vancomycin]: the “# Positives” value in assay [4] (M. scrofulaceum 19981, Media + VAN 1.75) came to 4.0; in assay [4] (setting [8]) it was 4.0; in assay [4] (M. scrofulaceum 19981, Media + VAN 7), 1.0; in assay [5] (Media + VAN 1.75) it was 4.0; in assay [5] (Media + VAN 3.5), 2.0; in assay [6] (Media + VAN 1.75), 4.0. In addition, the “# Positives” value in assay [6] (Media + VAN 3.5) and in assay [6] (Media + VAN 7) was 4.0 each time. The “Average TTD” value in assay [4] (setting [8]) turned out to be 14.0 days; in assay [6] (Media + VAN 1.75) it was 4.7 days; in assay [6] (Media + VAN 3.5), 4.1 days; in assay [6] (Media + VAN 7) it was 4.8 days. Also, the “effect on the growth (as determined by TTD of growth)” value in assay [4], in assay [5] and in assay [2] was “negative effect” in each case.

Regarding `CC1(C)S[C@@H]2[C@H](NC(=O)[C@H](NC(=O)N3CCNC3=O)c3ccccc3)C(=O)N2[C@H]1C(=O)O` [AZL, azlocillin], the “effect on the growth (as determined by TTD of growth)” value is given as “negative effect” in assay [4]; “negative effect” in assay [5]; “negative effect” in assay [1]; “negative effect” in assay [2] (Mycobacterium tuberculosis, compared to a culture medium that contained no antimicrobial agents). Moreover, the “# Positive” value in assay [2] (M. tuberculosis 25177, Media + AZL12) amounted to 4.0; in assay [2] (M. tuberculosis 25177, Media + AZL 24), 2.0; in assay [2] (M. tuberculosis 25177, Media + AZL 48), 2.0; in assay [2] (M. tuberculosis 27294, Media + AZL12), 4.0; in assay [2] (setting [9]), 4.0; in assay [2] (M. tuberculosis 27294, Media + AZL 48) it was 4.0. The “Average TTD” value in assay [2] (setting [9]) is recorded as 16.0 days.

For `C[C@@H]1O[C@@H]1P(=O)(O)O` [fosfomycin], the “ability to suppress contaminating respiratory flora (CRF)” value in assay [7] is “the best choice for suppression of CRF”.

(Values after US8617871B2, “Method and culture medium for enhanced detection of Mycobacterium” (bioMerieux, Inc., priority 2009, dated 2013).)
